Results on 13 compounds are retold here after the SangsterLogP compilation.

The nature of the data set: method code SF-AS, from DOI: 10.1098/rspb.1976.0034, PMID: 5728. The following applies: pH 4.5.

SMILES strings stand for the structures.

In the case of `CCc1ccc(S(N)(=O)=O)cc1`, the pH-dependent lipophilicity (logD) (as a rule, lipophilicity at a set pH, counting ionised and neutral species) turned out to be 1.31.
`CCCCOC(=O)c1ccc(S(N)(=O)=O)cc1` showed a logD of 2.34.
`CCCCCCNC(=O)c1ccc(S(N)(=O)=O)cc1` yielded a log distribution coefficient (logD) of 2.05.
For `CCCCCOC(=O)c1ccc(S(N)(=O)=O)cc1`, the logD came out at 2.71.
Take `CCCOC(=O)c1ccc(S(N)(=O)=O)cc1`: the logD worked out at 1.75.
`CCCCNC(=O)c1ccc(S(N)(=O)=O)cc1` registered a logD of 1.05.
Take `CCCc1ccc(S(N)(=O)=O)cc1`: the logD came out at 1.64.
Take `CCCNC(=O)c1ccc(S(N)(=O)=O)cc1`: the log distribution coefficient (logD) was determined as 0.51.
Regarding `CCNC(=O)c1ccc(S(N)(=O)=O)cc1`, the log distribution coefficient (logD) stood at 0.03.
Next, `CCOC(=O)c1ccc(S(N)(=O)=O)cc1`: 1.17.
In the case of `CCCCCNC(=O)c1ccc(S(N)(=O)=O)cc1`, the logD was determined as 1.51.
Next, `CCCCc1ccc(S(N)(=O)=O)cc1`: 2.45.
`CNC(=O)c1ccc(S(N)(=O)=O)cc1`: the pH-dependent lipophilicity (logD) is -0.31.
